Results reported in US9480754B2, “Phospholipid ether analogs as cancer-targeting drug vehicles” (Cellectar Biosciences, Inc., priority 2014, dated 2016).

Tests used:
Type in all cases: in vivo
Lung A-549 (NSCLC) = assay: 124I-CLR1404 tumor uptake, model 2; settings: SCID mouse, Adenocarcinoma
Experimental: (§1) All described animal studies were performed according to animal protocols approved by the Institutional Animal Care and Use Committee. Female athymic nude mice (Hsd:Athymic Nude-Foxnlnu or Crl:NU-Foxnlnu, Charles River Laboratories) about 4 to 5 weeks of age, 16 to 18 g (n=6), were used for human tumor xenograft studies. Mice were anesthetized with isoflurane and injected subcutaneously with viable tumor cells in 100 μl of Dulbecco's PBS (or, for glioma cells, […] of PBS) into the right flank. Inoculum sizes were 1×10^6 (for renal, ovarian, glioma, pancreatic, prostate, and NSCLC models), […] (for colorectal and uterine models), or 3×10^6 (breast).
(§2) Radioiodinated ^124I-CLR1404 was tested in subcutaneous and orthotopic xenografts of 60 different spontaneous, transgenic, human, and rodent malignant cell lines and tumor types. […] Representative examples are of both human (FIG. 5A-5I) and rodent (FIG. 5J-M) tumors.

Lung NCI H-69 (Oat Cell) = assay: 124I-CLR1404 tumor uptake, model 3; settings: SCID mouse, Small cell carcinoma
Experimental: as §1, §2

Colon LS180 = assay: 124I-CLR1404 tumor uptake, model 7; settings: SCID mouse, Adenocarcinoma
Experimental: as §1, §2

Neuroblastoma NB1691 = assay: 124I-CLR1404 tumor uptake, model 15; settings: Nude mouse
Experimental: as §1, §2

Neuroblastoma CHLA-20 = assay: 124I-CLR1404 tumor uptake, model 16; settings: Nude mouse
Experimental: as §1, §2

Pancreatic Capan-1 = assay: 124I-CLR1404 tumor uptake, model 22; settings: Nude mouse, Adenocarcinoma
Experimental: as §1, §2

Sarcoma (Meth-A) = assay: 124I-CLR1404 tumor uptake, model 25; settings: Nude mouse, Fibrosarcoma
Experimental: as §1, §2

Prostate LuCap = assay: 124I-CLR1404 tumor uptake, model 29; settings: Mouse, Adenocarcinoma
Experimental: as §1, §2

Walker256 = assay: 124I-CLR1404 tumor uptake, model 38; settings: Rat, Carcinosarcoma
Experimental: as §1, §2

TRAMP prostate = assay: 124I-CLR1404 tumor uptake, model 39; settings: Endogenous mouse, Adenocarcinoma
Experimental: as §1, §2

Min mouse intestinal = assay: 124I-CLR1404 tumor uptake, model 42; settings: Endogenous mouse, Adenocarcinoma
Experimental: as §1, §2

Melanoma = assay: 124I-CLR1404 tumor uptake, model 43; settings: Mouse
Experimental: as §1, §2

Mammary AC = assay: 124I-CLR1404 tumor uptake, model 45; settings: ApcMin/+ mouse, Adenocarcinoma
Experimental: as §1, §2

Hepatocellular carcinoma = assay: 124I-CLR1404 tumor uptake, model 46; settings: Endogenous mouse, Adenocarcinoma
Experimental: as §1, §2

Glioma RG2 = assay: 124I-CLR1404 tumor uptake, model 50; settings: Rat xenograft
Experimental: as §1, §2

[1] = tested on: Mammary alveolar hyperplasia; assay: 124I-CLR1404 tumor uptake, model 57; settings: Endogenous mouse, Hyperplasia (benign)
Experimental: as §1, §2

C[N+](C)(C)CCOP(=O)([O-])OCCCCCCCCCCCCCCCCCCc1ccc(I)cc1 [^124I-CLR1404] was tested, and the Uptake (Lung A-549 (NSCLC)) was “Yes (Tumor uptake was considered positive if tumor to muscle ratio was greater than 3.)”, the Uptake (Lung NCI H-69 (Oat Cell)) was “Yes (Tumor uptake was considered positive if tumor to muscle ratio was greater than 3.)” and the Uptake (Colon LS180) was “Yes (Tumor uptake was considered positive if tumor to muscle ratio was greater than 3.)”. For the same molecule, the Uptake (Neuroblastoma NB1691) was “Yes (Tumor uptake was considered positive if tumor to muscle ratio was greater than 3.)”, the Uptake (Neuroblastoma CHLA-20) was “Yes (Tumor uptake was considered positive if tumor to muscle ratio was greater than 3.)” and the Uptake (Pancreatic Capan-1) was “Yes (Tumor uptake was considered positive if tumor to muscle ratio was greater than 3.)”. For the same molecule, the Uptake (Sarcoma (Meth-A)) was “Yes (Tumor uptake was considered positive if tumor to muscle ratio was greater than 3.)”, the Uptake (Prostate LuCap) was “Yes (Tumor uptake was considered positive if tumor to muscle ratio was greater than 3.)” and the Uptake (Walker256) was “Yes (Tumor uptake was considered positive if tumor to muscle ratio was greater than 3.)”. The Uptake (TRAMP prostate) was “Yes (Tumor uptake was considered positive if tumor to muscle ratio was greater than 3.)”, the Uptake (Min mouse intestinal) was “Yes (Tumor uptake was considered positive if tumor to muscle ratio was greater than 3.)” and the Uptake (Melanoma) was “Yes (Tumor uptake was considered positive if tumor to muscle ratio was greater than 3.)”. For the same molecule, the Uptake (Mammary AC) was “Yes (Tumor uptake was considered positive if tumor to muscle ratio was greater than 3.)”, the Uptake (Hepatocellular carcinoma) was “Yes (Tumor uptake was considered positive if tumor to muscle ratio was greater than 3.)” and the Uptake (Glioma RG2) was “Yes (Tumor uptake was considered positive if tumor to muscle ratio was greater than 3.)”. For the same molecule, the Uptake [1] was “No (Tumor:muscle ratio less than or equal to 2 was considered negative.)”.
